Measurements reported in patent publication US9012655B2, “Antimicrobial/adjuvant compounds and methods” (Denouamed, Inc., priority 2011, dated 2015).
Converted amounts (≈) assume the structure as drawn.

How the values were obtained:
Type in all cases: cell-based
E. coli D22 = experiment: MIC, NCCLS M7-A6 broth microdilution, E. coli D22; details: Escherichia coli, D22, 16 to 20 h, 35 degrees Celsius
Method in brief: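 Broth microdilution per NCCLS M7-A6 in cation-adjusted Mueller-Hinton broth, doubling dilutions, inoculum 5×10^5 CFU/mL, DMSO controls included. Read after 16–20 h at 35 °C in ambient air; MIC is lowest concentration preventing visible growth.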

Ps. aeruginosa = experiment: Combination MICs for antibiotic adjuvant potential; details: compound at 125 μM
Experimental: (§1) Susceptibilities to the compounds were determined using the National Committee for Clinical Laboratory Standards (NCCLS) M7-A6 broth microdilution method. Cation-adjusted Mueller-Hinton broth (Ca^2+, 25 μg/mL; Mg^2+, 12.5 μg/mL) microdilution panels were prepared to contain antimicrobial doubling dilution concentrations of an appropriate range. DMSO (dimethylsulfoxide) controls were incorporated into the panel to mimic the quantity of DMSO used in dissolving some of the compounds at the higher concentrations. Each final panel well volume was 100 μL with a bacterial inoculum of 5×10^5 CFU (colony forming units)/mL of the relevant bacterium. Panels were read following 16 to 20 h of incubation at 35 degrees Celsius in ambient air. The MIC (minimum inhibitory concentration) was defined as the lowest concentration of antimicrobial inhibiting visible growth.
Generally following the procedure of Example 9, MICs of ampicillin, erythromycin, and azithromycin were determined against Ps. aeruginosa. Parallel to this effort, solutions were prepared which were identical. To each of these were added 0.5 μL of stock solution of a given compound of the present invention, then diluted to produce a final concentration of 125 μM, 60 μM, and/or 30 μM for determination of adjuvant activity. Compounds were determined to be antibiotic adjuvants if the mixture produced a lower MIC than that of the antibiotic agent alone.

Bacillus cereus NCTC6349 = experiment: MIC panel of challenge pathogens (CLSI); details: Bacillus cereus NCTC6349
Method in brief: (§2)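 Broth microdilution per CLSI guidelines. Final inoculum 2-8×10^5 CFU/ml, compounds serially two-fold diluted from 128 mg/L top concentration. Incubated in the dark at 30-37° C for 24-48 h, aerobic or anaerobic as appropriate. MIC read visually as 100% inhibition endpoint; MIC50 and MIC80 also reported.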

[1] = tested on: Enterococcus faecalis ATCC29212; experiment: MIC panel of challenge pathogens (CLSI); details: Enterococcus faecalis ATCC29212
Method in brief: as §2

[2] = tested on: Enterococcus faecium ATCC700221; experiment: MIC panel of challenge pathogens (CLSI); details: Enterococcus faecium ATCC700221
Method in brief: as §2

[3] = tested on: Staphylococcus aureus ATCC43300; experiment: MIC panel of challenge pathogens (CLSI); details: Staphylococcus aureus ATCC43300
Method in brief: as §2

[4] = tested on: Staphylococcus aureus AUR59 7005; experiment: MIC panel of challenge pathogens (CLSI); details: AUR597005, Staphylococcus aureus AUR59 7005
Method in brief: as §2

[5] = tested on: Staphylococcus aureus AUR60 7005; experiment: MIC panel of challenge pathogens (CLSI); details: AUR607005, Staphylococcus aureus AUR60 7005
Method in brief: as §2

[6] = tested on: Staphylococcus aureus EUP MRSA002; experiment: MIC panel of challenge pathogens (CLSI); details: EUPMRSA002, Staphylococcus aureus EUP MRSA002
Method in brief: as §2

[7] = tested on: Staphylococcus aureus NRS1 (ATCC700699); experiment: MIC panel of challenge pathogens (CLSI); details: Staphylococcus aureus NRS1 (ATCC700699)
Method in brief: as §2

[8] = tested on: Staphylococcus epidermidis NRS122; experiment: MIC panel of challenge pathogens (CLSI); details: Staphylococcus epidermidis NRS122
Method in brief: as §2

[9] = tested on: Staphylococcus epidermidis NRS7; experiment: MIC panel of challenge pathogens (CLSI); details: Staphylococcus epidermidis NRS7
Method in brief: as §2

[10] = tested on: Staphylococcus aureus EUP MRSA002; experiment: MIC panel of challenge pathogens (CLSI), EUP MRSA002; details: EUPMRSA002, Staphylococcus aureus EUP MRSA002
Method in brief: as §2

[11] = tested on: Streptococcus pneumoniae Group A; experiment: MIC against Streptococcus pneumoniae Group A; details: initial measurement, Todd Hewitt broth
Experimental: as §1
Generally following the procedure of Example 9, but using Todd Hewitt broth (beef heart digest) rather than Mueller-Hinton broth, MICs were initially measured against Streptococcus pneumoniae Group A for compounds of the present invention as follows: […]

For `CC(C)c1cc(Cl)ccc1-c1cc(-c2nnn[nH]2)sc1-c1ccc(Cl)cc1C(C)C` [DNM0548, 5-(4,5-Bis(4-chloro-2-iso-propylphenyl)thiophen-2-yl)-1H-tetrazole], the MIC (E. coli D22) was 60 µM (≈ 27.4 µg/mL), the “fold lower MIC for ampicillin” value (Ps. aeruginosa) was “up to 125 fold” and the “fold lower MIC for erythromycin” value (Ps. aeruginosa) was “up to 125 fold”. It also gave an MIC (Bacillus cereus NCTC6349; read-out: 100% inhibition) of no more than 0.25 µg/mL, an MIC50 (Bacillus cereus NCTC6349; read-out: MIC50 (50%)) of no more than 0.25 µg/mL and an MIC80 (Bacillus cereus NCTC6349; read-out: MIC80 (80%)) of no more than 0.25 µg/mL. For the same compound, the MIC ([1]; read-out: 100% inhibition) was 0.25 µg/mL (≈ 0.547 µM), the MIC50 ([1]; read-out: MIC50 (50%)) was 0.25 µg/mL (≈ 0.547 µM) and the MIC80 ([1]; read-out: MIC80 (80%)) was 0.25 µg/mL (≈ 0.547 µM). The MIC ([2]; read-out: 100% inhibition) was no more than 0.25 µg/mL, the MIC50 ([2]; read-out: MIC50 (50%)) was no more than 0.25 µg/mL and the MIC80 ([2]; read-out: MIC80 (80%)) was no more than 0.25 µg/mL. For the same compound, the MIC ([3]; read-out: 100% inhibition) was no more than 0.25 µg/mL, the MIC50 ([3]; read-out: MIC50 (50%)) was no more than 0.25 µg/mL and the MIC80 ([3]; read-out: MIC80 (80%)) was no more than 0.25 µg/mL. The MIC ([4]; read-out: 100% inhibition) was 0.5 µg/mL (≈ 1.09 µM), the MIC50 ([4]; read-out: MIC50 (50%)) was 0.5 µg/mL (≈ 1.09 µM) and the MIC80 ([4]; read-out: MIC80 (80%)) was 0.5 µg/mL (≈ 1.09 µM). It also gave an MIC ([5]; read-out: 100% inhibition) of 0.5 µg/mL (≈ 1.09 µM), an MIC50 ([5]; read-out: MIC50 (50%)) of 0.5 µg/mL (≈ 1.09 µM) and an MIC80 ([5]; read-out: MIC80 (80%)) of 0.5 µg/mL (≈ 1.09 µM). For the same compound, the MIC ([6]; read-out: 100% inhibition) was 0.5 µg/mL (≈ 1.09 µM), the MIC50 ([6]; read-out: MIC50 (50%)) was 0.5 µg/mL (≈ 1.09 µM) and the MIC80 ([6]; read-out: MIC80 (80%)) was 0.5 µg/mL (≈ 1.09 µM). It also gave an MIC ([7]; read-out: 100% inhibition) of no more than 0.25 µg/mL, an MIC50 ([7]; read-out: MIC50 (50%)) of no more than 0.25 µg/mL and an MIC80 ([7]; read-out: MIC80 (80%)) of no more than 0.25 µg/mL. The MIC ([8]; read-out: 100% inhibition) was 1 µg/mL (≈ 2.19 µM), the MIC50 ([8]; read-out: MIC50 (50%)) was 1 µg/mL (≈ 2.19 µM) and the MIC80 ([8]; read-out: MIC80 (80%)) was 1 µg/mL (≈ 2.19 µM). The MIC ([9]; read-out: 100% inhibition) was 0.5 µg/mL (≈ 1.09 µM), the MIC50 ([9]; read-out: MIC50 (50%)) was 0.5 µg/mL (≈ 1.09 µM) and the MIC80 ([9]; read-out: MIC80 (80%)) was 0.5 µg/mL (≈ 1.09 µM). For the same compound, the MIC ([10]; read-out: 100% inhibition) was no more than 0.25 µg/mL, the MIC50 ([10]; read-out: MIC50 (50%)) was no more than 0.25 µg/mL and the MIC80 ([10]; read-out: MIC80 (80%)) was no more than 0.25 µg/mL. It also gave an MIC [11] of less than 0.25 µM.
